Test results from patent publication US20250064941A1, “SIGLEC LIGANDS, CONJUGATES, AND METHODS OF USE THEREOF” (Osprey Biopharmaceuticals, Inc., priority 2023, published 2025).

How the values were obtained:
[1] = molecular target: T1, human Siglec-2/CD22 protein (Homo sapiens, UniProt P20273); assay: SPR binding affinity to human CD22; conditions: steady-state analysis
T1 construct: purchased Acro Biosystems SI2-H82E3
T1 sequence (P20273 20-847): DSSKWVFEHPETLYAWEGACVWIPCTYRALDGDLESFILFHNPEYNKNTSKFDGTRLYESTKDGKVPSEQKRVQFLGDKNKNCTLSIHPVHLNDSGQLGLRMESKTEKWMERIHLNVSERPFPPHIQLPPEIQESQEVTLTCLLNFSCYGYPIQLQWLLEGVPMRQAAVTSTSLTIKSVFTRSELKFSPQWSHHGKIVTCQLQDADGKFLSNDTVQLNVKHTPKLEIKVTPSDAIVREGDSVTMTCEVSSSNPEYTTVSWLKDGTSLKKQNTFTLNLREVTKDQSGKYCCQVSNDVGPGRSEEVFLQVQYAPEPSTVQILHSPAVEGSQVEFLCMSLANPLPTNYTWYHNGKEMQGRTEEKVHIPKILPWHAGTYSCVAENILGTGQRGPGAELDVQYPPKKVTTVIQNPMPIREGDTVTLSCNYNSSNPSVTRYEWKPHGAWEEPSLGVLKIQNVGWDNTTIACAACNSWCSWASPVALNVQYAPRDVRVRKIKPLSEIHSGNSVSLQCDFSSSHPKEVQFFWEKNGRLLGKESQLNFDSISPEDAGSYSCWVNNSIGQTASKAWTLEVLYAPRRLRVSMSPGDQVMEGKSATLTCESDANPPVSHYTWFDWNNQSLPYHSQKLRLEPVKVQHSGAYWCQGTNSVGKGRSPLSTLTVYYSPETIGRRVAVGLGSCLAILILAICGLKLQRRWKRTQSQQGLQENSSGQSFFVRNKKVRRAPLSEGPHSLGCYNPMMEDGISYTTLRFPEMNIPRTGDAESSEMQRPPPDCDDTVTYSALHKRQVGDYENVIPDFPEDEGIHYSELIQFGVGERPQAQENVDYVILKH
Method in brief: (§1)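 Native sialic acid residues are removed from the receptor enzymatically (4 hours at 37° C.) prior to streptavidin capture of the biotinylated protein. Ligand compounds then flow over in HEPES-buffered saline, pH 7.5, containing 0.05% Tween-20 and 1% DMSO, and binding is evaluated at steady state.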

[2] = molecular target: T2, mouse Siglec-2-Fc-Avi (CD22) (Mus musculus, UniProt P35329); assay: SPR binding affinity to mouse CD22; conditions: steady-state analysis
T2 construct: made in house
T2 sequence (P35329 22-708 limits assumed): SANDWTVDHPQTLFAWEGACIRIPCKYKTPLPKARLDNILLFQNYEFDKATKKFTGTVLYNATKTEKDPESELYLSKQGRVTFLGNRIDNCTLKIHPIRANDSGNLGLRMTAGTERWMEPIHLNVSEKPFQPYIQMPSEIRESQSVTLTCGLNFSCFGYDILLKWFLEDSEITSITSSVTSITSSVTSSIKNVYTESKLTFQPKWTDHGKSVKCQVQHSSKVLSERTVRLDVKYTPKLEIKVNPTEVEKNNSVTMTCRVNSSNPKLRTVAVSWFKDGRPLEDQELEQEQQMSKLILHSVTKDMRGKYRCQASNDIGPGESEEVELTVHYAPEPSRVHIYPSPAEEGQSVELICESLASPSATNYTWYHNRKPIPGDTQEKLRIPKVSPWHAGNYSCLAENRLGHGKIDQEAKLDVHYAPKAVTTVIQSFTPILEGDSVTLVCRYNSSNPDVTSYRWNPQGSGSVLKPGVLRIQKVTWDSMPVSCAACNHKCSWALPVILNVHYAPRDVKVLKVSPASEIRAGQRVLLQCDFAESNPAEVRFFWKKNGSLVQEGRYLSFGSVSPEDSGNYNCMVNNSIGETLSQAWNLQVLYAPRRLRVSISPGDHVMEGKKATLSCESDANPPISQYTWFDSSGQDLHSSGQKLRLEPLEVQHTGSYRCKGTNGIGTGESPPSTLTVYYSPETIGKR
Method in brief: as §1

cynomolgus Siglec-2/CD22 = cynomolgus Siglec-2/CD22 (Macaca fascicularis, UniProt A0A2K5WCZ6); assay: biochemical; assay type: binding; conditions: SPR, steady-state analysis; read-out: Affinity cyno CD22
cynomolgus Siglec-2/CD22, sequence (A0A2K5WCZ6 entry or part of it): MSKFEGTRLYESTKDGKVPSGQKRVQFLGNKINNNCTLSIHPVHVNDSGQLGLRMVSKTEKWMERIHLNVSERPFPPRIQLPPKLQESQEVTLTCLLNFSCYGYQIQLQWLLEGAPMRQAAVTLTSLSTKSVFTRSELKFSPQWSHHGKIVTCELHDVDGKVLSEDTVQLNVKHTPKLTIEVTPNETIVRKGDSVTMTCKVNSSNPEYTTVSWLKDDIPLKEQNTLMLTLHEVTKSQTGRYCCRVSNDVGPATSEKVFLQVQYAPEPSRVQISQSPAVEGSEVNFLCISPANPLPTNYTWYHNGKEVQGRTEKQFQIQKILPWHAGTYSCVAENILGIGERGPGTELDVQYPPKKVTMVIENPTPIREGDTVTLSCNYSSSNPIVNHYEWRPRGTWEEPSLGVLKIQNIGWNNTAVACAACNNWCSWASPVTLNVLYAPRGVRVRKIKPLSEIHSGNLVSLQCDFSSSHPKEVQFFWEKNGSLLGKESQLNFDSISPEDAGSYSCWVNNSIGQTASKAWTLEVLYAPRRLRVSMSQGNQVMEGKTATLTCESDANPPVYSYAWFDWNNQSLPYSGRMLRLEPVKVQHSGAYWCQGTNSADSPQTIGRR
Method in brief: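 SPR with desialylated (SialoExo, 4 h, 37° C.) cynomolgus CD22 amine-coupled to a CM5 chip. Running buffer 10 mM HEPES, 150 mM NaCl, 0.05% Tween-20, pH 7.5, 1% DMSO, with solvent correction; 120 s dissociation. Affinities from steady-state analysis.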

Row | Compound | Kd [1] [µM] | Kd [2] [µM] | Kd (cynomolgus Siglec-2/CD22) [µM]
1 | C#CCOCCCCCCO[C@]1(C(=O)O)C[C@H](O)[C@@H](NC(=O)C(=O)Nc2ccccc2)[C@H]([C@H](O)[C@H](O)CNC(=O)Cc2ccc(Cl)cc2)O1 [Compound 188, (2R,4S,5R,6R)-6-((1R,2R)-3-(2-(4-chlorophenyl)acetamido)-1,2-dihydroxypropyl)-4-hydroxy-5-(2-oxo-2-(phenylamino)acetamido)-2-((6-(prop-2-yn-1-yloxy)hexyl)oxy)tetrahydro-2H-pyran-2-carboxylic acid] | < 1 | 1 to 10 | < 1
2 | C#CCCCCCCO[C@]1(C(=O)O)C[C@H](O)[C@@H](NC(=O)CO)[C@H]([C@H](O)[C@H](O)CNC(=O)Cc2ccc(C(F)F)cc2)O1 [Compound 212, (2R,4S,5R,6R)-6-((1R,2R)-3-(2-(4-(difluoromethyl)phenyl)acetamido)-1,2-dihydroxypropyl)-4-hydroxy-5-(2-hydroxyacetamido)-2-(oct-7-yn-1-yloxy)tetrahydro-2H-pyran-2-carboxylic acid] | < 1 | < 1 | < 1
3 | C#CCOCCOCCO[C@@]1(C(=O)O)O[C@@H]([C@H](O)[C@H](O)CNC(=O)Cc2ccc(-c3ccccc3)cc2)[C@H](NC(=O)CO)[C@@H](NC(=O)c2cccc(OC)c2)[C@@H]1O [Compound 36, (2R,3S,4R,5R,6R)-6-((1R,2R)-3-(2-([1,1′-biphenyl]-4-yl)acetamido)-1,2-dihydroxypropyl)-3-hydroxy-5-(2-hydroxyacetamido)-4-(3-methoxybenzamido)-2-(2-(2-(prop-2-yn-1-yloxy)ethoxy)ethoxy)tetrahydro-2H-pyran-2-carboxylic acid] | < 1 | 1 to 10 | 1 to 10
4 | CC(=O)NCCOCCOCCOCCOCc1cn(CCOCCOCCO[C@]2(C(=O)O)C[C@H](O)[C@@H](NC(=O)CO)[C@H]([C@H](O)[C@H](O)CNC(=O)Cc3ccc(-c4ccccc4)cc3)O2)nn1 [Cpd. 243, (2R,4S,5R,6R)-6-((1R,2R)-3-(2-([1,1′-biphenyl]-4-yl)acetamido)-1,2-dihydroxypropyl)-4-hydroxy-5-(2-hydroxyacetamido)-2-(2-(2-(2-(4-(15-oxo-2,5,8,11-tetraoxa-14-azahexadecyl)-1H-1,2,3-triazol-1-yl)ethoxy)ethoxy)ethoxy) tetrahydro-2H-pyran-2-carboxylic acid] | 1 to 10 | 1 to 10 | 1 to 10
5 | C#CCOCCOCCO[C@]1(C(=O)O)C[C@H](O)[C@@H](NC(=O)CO)[C@H]([C@H](O)[C@H](O)CNC(=O)Cn2cc(-c3ccccc3)nn2)O1 [Compound 177, (2R,4S,5R,6R)-6-((1R,2R)-1,2-dihydroxy-3-(2-(4-phenyl-1H-1,2,3-triazol-1-yl)acetamido)propyl)-4-hydroxy-5-(2-hydroxyacetamido)-2-(2-(2-(prop-2-yn-1-yloxy)ethoxy)ethoxy)tetrahydro-2H-pyran-2-carboxylic acid] | 1 to 10 | > 10 | 1 to 10
6 | C#CCOP(=O)(O)OCCCCCCO[C@]1(C(=O)O)C[C@H](O)[C@@H](NC(=O)CO)[C@H]([C@H](O)[C@H](O)CNC(=O)Cc2ccc(Cl)cc2)O1 [Compound 105, (2R,4S,5R,6R)-6-((1R,2R)-3-(2-(4-chlorophenyl)acetamido)-1,2-dihydroxypropyl)-4-hydroxy-2-((6-((hydroxy(prop-2-yn-1-yloxy)phosphoryl)oxy)hexyl)oxy)-5-(2-hydroxyacetamido)tetrahydro-2H-pyran-2-carboxylic acid] | < 1 | < 1 | < 1
7 | C#CCCOc1ccc(CO[C@]2(C(=O)O)C[C@H](O)[C@@H](NC(=O)CO)[C@H]([C@H](O)[C@H](O)CNC(=O)Cc3cccc(-c4ccc(O)cc4)c3)O2)cc1 [Compound 44, (2R,4S,5R,6R)-2-((4-(but-3-yn-1-yloxy)benzyl)oxy)-6-((1R,2R)-1,2-dihydroxy-3-(2-(4′-hydroxy-[1,1′-biphenyl]-3-yl)acetamido)propyl)-4-hydroxy-5-(2-hydroxyacetamido)tetrahydro-2H-pyran-2-carboxylic acid] | < 1 | 1 to 10 | 1 to 10
8 | C#CCCOc1ccc(CS[C@]2(C(=O)O)C[C@H](O)[C@@H](NC(=O)CO)[C@H]([C@H](O)[C@H](O)CNC(=O)Cc3ccc(Cl)cc3)O2)cc1 [Compound 122, (2S,4S,5R,6R)-2-((4-(but-3-yn-1-yloxy)benzyl)thio)-6-((1R,2R)-3-(2-(4-chlorophenyl)acetamido)-1,2-dihydroxypropyl)-4-hydroxy-5-(2-hydroxyacetamido)tetrahydro-2H-pyran-2-carboxylic acid] | < 1 | < 1 | < 1
9 | C#CCOCCCCCCO[C@]1(C(=O)O)C[C@H](O)[C@@H](NC(=O)CO)[C@H]([C@H](O)[C@H](O)CNC(=O)Cc2ccc(C(F)(F)F)cc2)O1 [Compound 158, (2R,4S,5R,6R)-6-((1R,2R)-1,2-dihydroxy-3-(2-(4-(trifluoromethyl)phenyl)acetamido)propyl)-4-hydroxy-5-(2-hydroxyacetamido)-2-((6-(prop-2-yn-1-yloxy)hexyl)oxy)tetrahydro-2H-pyran-2-carboxylic acid] | < 1 | 1 to 10 | 1 to 10

Second part, the compound after the results:

Row | Kd [1] [µM] | Kd [2] [µM] | Kd (cynomolgus Siglec-2/CD22) [µM] | Compound
10 | < 1 | 1 to 10 | < 1 | C#CCCCCCCO[C@]1(C(=O)O)C[C@H](O)[C@@H](NC(=O)CO)[C@H]([C@H](O)[C@H](O)CNC(=O)c2ccc(Cl)cc2)O1 [Cpd. 267, (2R,4S,5R,6R)-6-((1R,2R)-3-(4-chlorobenzamido)-1,2-dihydroxypropyl)-4-hydroxy-5-(2-hydroxyacetamido)-2-(oct-7-yn-1-yloxy) tetrahydro-2H-pyran-2-carboxylic acid]
11 | < 1 | < 1 | < 1 | C#CCOCCCCCCO[C@]1(C(=O)O)C[C@H](O)[C@@H](NC(=O)CO)[C@H]([C@H](O)[C@H](O)CNC(=O)Cc2ccc(C3CC3)cc2)O1 [Compound 161, (2R,4S,5R,6R)-6-((1R,2R)-3-(2-(4-cyclopropylphenyl)acetamido)-1,2-dihydroxypropyl)-4-hydroxy-5-(2-hydroxyacetamido)-2-((6-(prop-2-yn-1-yloxy)hexyl)oxy)tetrahydro-2H-pyran-2-carboxylic acid]
12 | < 1 | 1 to 10 | 1 to 10 | C#CCOCCOCCO[C@]1(C(=O)O)C[C@H](O)[C@@H](NC(=O)CO)[C@H]([C@H](O)[C@H](O)CNC(=O)Cc2ccc(-c3ccccc3O)cc2)O1 [Compound 68, (2R,4S,5R,6R)-6-((1R,2R)-1,2-dihydroxy-3-(2-(2′-hydroxy-[1,1′-biphenyl]-4-yl)acetamido)propyl)-4-hydroxy-5-(2-hydroxyacetamido)-2-(2-(2-(prop-2-yn-1-yloxy)ethoxy)ethoxy)tetrahydro-2H-pyran-2-carboxylic acid]
13 | < 1 | 1 to 10 | < 1 | C#CCOCCOCCO[C@]1(C(=O)O)C[C@H](O)[C@@H](NC(=O)CO)[C@H]([C@H](O)[C@H](O)CNC(=O)Cc2ccc3[nH]ccc3c2)O1 [Compound 196, (2R,4S,5R,6R)-6-((1R,2R)-3-(2-(1H-indol-5-yl)acetamido)-1,2-dihydroxypropyl)-4-hydroxy-5-(2-hydroxyacetamido)-2-(2-(2-(prop-2-yn-1-yloxy)ethoxy)ethoxy)tetrahydro-2H-pyran-2-carboxylic acid]
